Test results as given in patent publication US11857644B2, “Multi-signal fluorescent probe for early diagnosis of tumors, and preparation and use thereof” (Hunan Cancer Hospital, priority 2022, dated 2024).

Legend:
[1] = Fluorescence response selectivity against other species; conditions: OH, t-BuO, 1O2, NO, GSH, Cys, Hcy, SO2, NAC, H2S, halides, amino acids, NaHS, NaHSO3, EtSH, PhSH, n-Butylamine, aniline
Procedure: Regarding a method for detecting ONOO^− and Na2S2 in cells, unless otherwise specified, a probe molecule is dissolved at room temperature for analytical detection, where a volume ratio of an organic phase to an aqueous phase is 5:5. The organic phase is acetonitrile (CH3CN), and the aqueous phase is formed by PBS (pH=7.4) and an aqueous solution of the analyte.
The multi-signal fluorescent probe for reactive oxygen was dissolved in a solution, in which a volume ratio of […] to the aqueous phase was 5:5. The multi-signal fluorescent probe emitted 492 nm green light under 380 nm excitation wavelength after reacted with ONOO^−, and emitted 548 nm yellow light under 410 nm excitation wavelength after reacted with Na2S2. Accordingly, a specific analyte can be detected by the specific excitation and fluorescence emission signal. The ONOO^− and Na2S2 can be distinguished by using different excitation wavelengths and fluorescence emission signals. […] The LOD for ONOO^− is 42.12 nM, and the LOD for Na2S2 is 38.45 nM. In summary, the multi-signal fluorescent probe can realize the high-sensitivity discrimination and detection of ONOO^− and Na2S2.

[2] = Fluorescence detection of Na2S2 by the probe (limit of detection); conditions: organic phase:aqueous phase (PBS) 5:5, room temperature
Procedure: (§1) The multi-signal fluorescent probe was dissolved with dimethyl sulfoxide (DMSO) to obtain a 1 mM probe solution. A 1 mM ONOO^− aqueous solution and a 1 mM Na2S2 aqueous solution were prepared.
(§2) 20 μL of the 1 mM probe solution, 980 μL of analytically pure CH3CN, the required amount of the 1 mM ONOO^− or Na2S2 aqueous solution and the required amount of phosphate buffered saline (PBS) were added into a 2 mL sample tube. A volume ratio of an organic phase to an aqueous phase was kept at 5:5 for all tests (a total volume of each test sample was 2 mL).
L of the 1 mM probe solution, 980 μL of analytically pure CH3CN, 20 μL of the 1 mM ONOO^− aqueous solution and 980 μL of PBS were added into a 2 mL sample tube. […] Then, the fluorescence emission intensity of the reaction mixture could be measured under the 350 nm excitation wavelength. […] Fluorescence spectra of the multi-signal fluorescent probe in the detection of peroxynitrite and sodium disulfide were shown in FIG. 2. […]
The multi-signal fluorescent probe for reactive oxygen was dissolved in a solution, in which a volume ratio of DMSO to the aqueous phase was 5:5. […] Accordingly, a specific analyte can be detected by the specific excitation and fluorescence emission signal. The ONOO^− and Na2S2 can be distinguished by using different excitation wavelengths and fluorescence emission signals. […]

[3] = Fluorescence detection of ONOO^− by the probe (limit of detection); conditions: organic phase:aqueous phase (PBS) 5:5, room temperature, 15 min
Procedure: as §1, §2
For example, when it was required to explore the fluorescence intensity of the multi-signal fluorescent probe after reacted with […] ONOO^−, the experiment was formulated as follows.
L of the 1 mM probe solution, 980 μL of analytically pure CH3CN, 20 μL of the 1 mM ONOO^− aqueous solution and 980 μL of PBS were added into a 2 mL sample tube. The reaction mixture was mixed evenly under shaking at room temperature for 15 min. Then, the fluorescence emission intensity of the reaction mixture could be measured under the 350 nm excitation wavelength. Other steps were performed as above. The limit of detection (LOD) for ONOO^− was 42.12 nM, and the LOD for Na2S2 was 38.45 nM. Fluorescence spectra of the multi-signal fluorescent probe in the detection of peroxynitrite and sodium disulfide were shown in FIG. 2. […]

SMILES: CCN1c2ccccc2Sc2cc3c(Cl)cc(=O)oc3cc21 [multi-signal fluorescent probe, 4-chloro-11-ethylpyrano[2,3-b]phenothiazin-2(11H)-one]
- fluorescence response to interfering species [1]: no significant response
- LOD for Na2S2 [2]: 38.45 nM
- limit of detection (LOD) for ONOO^− [3]: 42.12 nM
